Read-outs that look alike come from different tables or passages of the source.
Tested on: HIV-1 (NL4-3 strain)
Experiment: Assay for Inhibition of HIV Replication (kinetic assay, MT4-gag-GFP reporter cell line; VIKING)
Format: cell-based
Summary of the method: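 MT4-gag-GFP cells infected with HIV-1 NL4-3 at low MOI for 24 h were seeded with compound (0.4% DMSO) in medium with 0%, 10% or 100% normal human serum. GFP-positive cells were counted at 24 and 48 h, and R0 was the 48 h/24 h ratio. Inhibition was scaled to DMSO and triple-drug controls, and IC50 came from 4-parameter fits.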

[1] = MT4-GFP cells infected with HIV-1 NL4-3, 0% normal human serum (NHS), read-out: VIKING IP50 (nM) with 0% NHS
[2] = MT4-GFP cells infected with HIV-1 NL4-3, 100% normal human serum (NHS), read-out: VIKING IP50 (nM) with 100% NHS
[3] = Human immunodeficiency virus 1, NL43, MT4-GFP cells infected with HIV-1 NL4-3, 0% normal human serum (NHS), read-out: VIKING IP50 (nM) with 0% NHS
[4] = Human immunodeficiency virus 1, NL43, MT4-GFP cells infected with HIV-1 NL4-3, 100% normal human serum (NHS), read-out: VIKING IP50 (nM) with 100% NHS

Question: With `O=C(NCc1c(F)cc(F)cc1F)c1c2n3c(c(O)c1=O)C(=O)N1C4CCC(C4)OC1C3CC2` (stereo not shown) [Compound 170] as the molecule, how does the IC50 [1] read?
Answer: 2.59 nM

Question: What about the IC50 [2] of the same molecule?
Answer: 5360 nM

Question: For `O=C(NCc1c(F)cc(F)cc1F)c1c2n3c(c(O)c1=O)C(=O)N1C4CCC(C4)OC1C3CC2` (stereo not shown) [Compound 171], which IC50 [1] is on record?
Answer: 2.82 nM

Question: And the IC50 [2]?
Answer: 74.6 nM

Question: What does the source list for `CCNC1C[C@@H]2[C@H]3OC4CCC(C4)N3C(=O)c3c(O)c(=O)c(C(=O)NCc4ccc(F)cc4F)c1n32` (stereo partly shown) [Compound 174]?
Answer: IC50 [3]: 30.2 nM; IC50 [4]: 114 nM

Question: With `CCNC1C[C@@H]2[C@H]3OC4CCC(C4)N3C(=O)c3c(O)c(=O)c(C(=O)NCc4ccc(F)cc4F)c1n32` (stereo partly shown) [Compound 175] as the molecule, how does the IC50 [1] read?
Answer: 20.8 nM

Question: And the IC50 [2]?
Answer: 78.8 nM

Question: What does the source list for `CCNC1C[C@H]2[C@H]3OC4CCC(C4)N3C(=O)c3c(O)c(=O)c(C(=O)NCc4ccc(F)cc4F)c1n32` (stereo partly shown) [Compound 176]?
Answer: IC50 [3]: 16.8 nM; IC50 [4]: 129 nM

Question: For `CCNC1C[C@H]2[C@H]3OC4CCC(C4)N3C(=O)c3c(O)c(=O)c(C(=O)NCc4ccc(F)cc4F)c1n32` (stereo partly shown) [Compound 177], which IC50 [1] is on record?
Answer: 11.2 nM

Question: And the IC50 [2]?
Answer: 191 nM

Question: Which results are given for `CCNC1CC2C3OCCCN3C(=O)c3c(O)c(=O)c(C(=O)NCc4c(F)cc(F)cc4F)c1n32` (stereo not shown) [Compound 178]?
Answer: IC50 [1]: 16 nM; IC50 [2]: 6090 nM

Question: Which IC50 [1] does the source give for `CCNC1CC2C3OCCCN3C(=O)c3c(O)c(=O)c(C(=O)NCc4c(F)cc(F)cc4F)c1n32` (stereo not shown) [Compound 180] here?
Answer: 3.57 nM

Question: And the IC50 [2]?
Answer: 20.1 nM

Question: Which IC50 [1] does the source give for `CCNC1CC2C3OCCCN3C(=O)c3c(O)c(=O)c(C(=O)NCc4c(F)cc(F)cc4F)c1n32` (stereo not shown) [Compound 181] here?
Answer: 6.41 nM

Question: And the IC50 [2]?
Answer: 29.9 nM

Question: What does the source list for `CCNC1CC2C3OCCCN3C(=O)c3c(O)c(=O)c(C(=O)NCc4c(F)cc(F)cc4F)c1n32` (stereo not shown) [Compound 182]?
Answer: IC50 [1]: 6.63 nM; IC50 [2]: 44.9 nM

Question: `CCNC1CC2C3OCCCN3C(=O)c3c(O)c(=O)c(C(=O)NCc4c(F)cc(F)cc4F)c1n32` (stereo not shown) [Compound 183] was tested. Which IC50 [1] did it give?
Answer: 13.3 nM

Question: What about the IC50 [2] of the same molecule?
Answer: 3570 nM

Question: Which IC50 [1] does the source give for `CCNC1CC2C3OCCCN3C(=O)c3c(O)c(=O)c(C(=O)NCc4c(F)cc(F)cc4F)c1n32` (stereo not shown) [Compound 184] here?
Answer: 5 nM

Question: And the IC50 [2]?
Answer: 167 nM

Question: `CCNC1CC2C3OCCCN3C(=O)c3c(O)c(=O)c(C(=O)NCc4cccc(F)c4F)c1n32` (stereo not shown) [Compound 185] was tested. Which IC50 [3] did it give?
Answer: 11.7 nM

Question: And the IC50 [4]?
Answer: 1160 nM

Question: What does the source list for `CCNC1CC2C3OCCCN3C(=O)c3c(O)c(=O)c(C(=O)NCc4cccc(F)c4F)c1n32` (stereo not shown) [Compound 186]?
Answer: IC50 [1]: 9.86 nM; IC50 [2]: 36.5 nM

Question: Which results are given for `CCNC1CC2C3OCCCN3C(=O)c3c(O)c(=O)c(C(=O)NCc4cccc(F)c4F)c1n32` (stereo not shown) [Compound 187]?
Answer: IC50 [1]: 3.51 nM; IC50 [2]: 49.1 nM

Question: How did the IC50 [1] turn out when `CCNC1CC2C3OCCCN3C(=O)c3c(O)c(=O)c(C(=O)NCc4cccc(F)c4F)c1n32` (stereo not shown) [Compound 188] was run?
Answer: 16.3 nM

Question: What about the IC50 [2] of the same molecule?
Answer: 462 nM

Question: `CCNC1CC2C3OCCCN3C(=O)c3c(O)c(=O)c(C(=O)NCc4cccc(F)c4F)c1n32` (stereo not shown) [Compound 189] was tested. Which IC50 [1] did it give?
Answer: 11 nM

Question: And the IC50 [2]?
Answer: 3870 nM

Question: With `CCNC1CC2C3OCCCN3C(=O)c3c(O)c(=O)c(C(=O)NCc4cccc(F)c4F)c1n32` (stereo not shown) [Compound 190] as the molecule, how does the IC50 [1] read?
Answer: 5.26 nM

Question: What about the IC50 [2] of the same molecule?
Answer: 66.4 nM

Question: For `CCNC1CC2C3OCCCN3C(=O)c3c(O)c(=O)c(C(=O)NCc4cccc(F)c4F)c1n32` (stereo not shown) [Compound 191], which IC50 [1] is on record?
Answer: 12.6 nM

Question: What about the IC50 [2] of the same molecule?
Answer: 63.6 nM

Question: With `CCNC1CC2C3OCCCN3C(=O)c3c(O)c(=O)c(C(=O)NCc4cccc(F)c4F)c1n32` (stereo not shown) [Compound 192] as the molecule, how does the IC50 [1] read?
Answer: 8.76 nM

Question: What about the IC50 [2] of the same molecule?
Answer: 92.3 nM

Question: `CCNC1CC2C3OCCCN3C(=O)c3c(O)c(=O)c(C(=O)NCc4cccc(Cl)c4F)c1n32` (stereo not shown) [Compound 193] was tested. Which IC50 [1] did it give?
Answer: 7.89 nM

Question: And the IC50 [2]?
Answer: 2910 nM

Question: Which IC50 [1] does the source give for `CCNC1CC2C3OCCCN3C(=O)c3c(O)c(=O)c(C(=O)NCc4cccc(Cl)c4F)c1n32` (stereo not shown) [Compound 194] here?
Answer: 15.7 nM

Question: And the IC50 [2]?
Answer: 35.1 nM

Question: How did the IC50 [1] turn out when `CCNC1CC2C3OCCCN3C(=O)c3c(O)c(=O)c(C(=O)NCc4cccc(Cl)c4F)c1n32` (stereo not shown) [Compound 195] was run?
Answer: 12.4 nM

Question: What about the IC50 [2] of the same molecule?
Answer: 25.7 nM

Question: `CCNC1CC2C3OCCCN3C(=O)c3c(O)c(=O)c(C(=O)NCc4cccc(Cl)c4F)c1n32` (stereo not shown) [Compound 196] was tested. Which IC50 [1] did it give?
Answer: 15.3 nM

Question: What about the IC50 [2] of the same molecule?
Answer: 883 nM

Question: `CCNC1CC2C3OCCCN3C(=O)c3c(O)c(=O)c(C(=O)NCc4cccc(Cl)c4F)c1n32` (stereo not shown) [Compound 197] was tested. Which IC50 [1] did it give?
Answer: 14 nM

Question: And the IC50 [2]?
Answer: 15100 nM

Question: Which results are given for `CCNC1CC2C3OCCCN3C(=O)c3c(O)c(=O)c(C(=O)NCc4cccc(Cl)c4F)c1n32` (stereo not shown) [Compound 198]?
Answer: IC50 [1]: 5.29 nM; IC50 [2]: 96.9 nM

Question: How did the IC50 [1] turn out when `CCNC1CC2C3OCCCN3C(=O)c3c(O)c(=O)c(C(=O)NCc4cccc(Cl)c4F)c1n32` (stereo not shown) [Compound 199] was run?
Answer: 7.12 nM

Question: And the IC50 [2]?
Answer: 42.9 nM

Question: Which results are given for `CCNC1CC2C3OCCCN3C(=O)c3c(O)c(=O)c(C(=O)NCc4cccc(Cl)c4F)c1n32` (stereo not shown) [Compound 200]?
Answer: IC50 [1]: 10.1 nM; IC50 [2]: 67.3 nM

Question: `CCNC1CC2C3OCCCN3C(=O)c3c(O)c(=O)c(C(=O)NCc4ccc(F)cc4F)c1n32` (stereo not shown) [Compound 201] was tested. Which IC50 [1] did it give?
Answer: 8.98 nM

Question: What about the IC50 [2] of the same molecule?
Answer: 2060 nM

Question: With `CCNC1CC2C3OCCCN3C(=O)c3c(O)c(=O)c(C(=O)NCc4ccc(F)cc4F)c1n32` (stereo not shown) [Compound 202] as the molecule, how does the IC50 [1] read?
Answer: 7.73 nM

Question: And the IC50 [2]?
Answer: 39.4 nM

Question: What does the source list for `CCNC1CC2C3OCCCN3C(=O)c3c(O)c(=O)c(C(=O)NCc4ccc(F)cc4F)c1n32` (stereo not shown) [Compound 203]?
Answer: IC50 [1]: 6.47 nM; IC50 [2]: 25.8 nM

Question: Which IC50 [1] does the source give for `CCNC1CC2C3OCCCN3C(=O)c3c(O)c(=O)c(C(=O)NCc4ccc(F)cc4F)c1n32` (stereo not shown) [Compound 204] here?
Answer: 15.7 nM

Question: What about the IC50 [2] of the same molecule?
Answer: 4830 nM

Question: What does the source list for `CCNC1CC2C3OCCCN3C(=O)c3c(O)c(=O)c(C(=O)NCc4ccc(F)cc4F)c1n32` (stereo not shown) [Compound 205]?
Answer: IC50 [1]: 11.3 nM; IC50 [2]: 116 nM

Question: Which IC50 [1] does the source give for `CCNC1CC2C3OCCCN3C(=O)c3c(O)c(=O)c(C(=O)NCc4ccc(F)cc4F)c1n32` (stereo not shown) [Compound 206] here?
Answer: 7.11 nM

Question: What about the IC50 [2] of the same molecule?
Answer: 51.6 nM

Question: How did the IC50 [1] turn out when `CCNC1CC2C3OCCCN3C(=O)c3c(O)c(=O)c(C(=O)NCc4ccc(F)cc4F)c1n32` (stereo not shown) [Compound 207] was run?
Answer: 5.21 nM

Question: And the IC50 [2]?
Answer: 140 nM
